Results published in publication PMC10174618, “Monoterpenoid aryl hydrocarbon receptor allosteric antagonists protect against ultraviolet skin damage in female mice” (Nature Communications, 2023).

What was measured:
Experiment in all cases: biochemical
Set-up in all cases: KINOMEscan scanMAX active site-directed competition binding assay, percent of control, 468 kinases
Details in all cases: competition binding, percent of control
[1] = molecular target: T1, ABL1(T315I)-nonphosphorylated (Homo sapiens, UniProt P00519, T315I)
T1 construct: nonphosphorylated
In short: (§1)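 Single-concentration screen (100 μM S-carvone) in a competition binding panel of 468 human kinases (KINOMEscan scanMAX); results given as percent of control, hit cutoff 35%.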

[2] = molecular target: ACVR2A (Homo sapiens, UniProt P27037)
In short: as §1

[3] = molecular target: T2, ASK1 (Homo sapiens, UniProt Q99683)
T2 construct: gene MAP3K5
In short: as §1

[4] = molecular target: BRSK2 (Homo sapiens, UniProt Q8IWQ3)
In short: as §1

[5] = molecular target: T3, CDC2L1 (Homo sapiens, UniProt P21127)
T3 construct: gene CDK11B
In short: as §1

[6] = molecular target: CHEK1 (Homo sapiens, UniProt O14757)
In short: as §1

[7] = molecular target: CIT (Homo sapiens, UniProt O14578)
In short: as §1

[8] = molecular target: EIF2AK1 (Homo sapiens, UniProt Q9BQI3)
In short: as §1

[9] = molecular target: FLT3(ITD) (Homo sapiens, UniProt P36888, ITD)
In short: as §1

[10] = molecular target: T4, JAK1(JH1domain-catalytic) (Homo sapiens, UniProt P23458)
T4 construct: JH1domain-catalytic
In short: as §1

[11] = molecular target: KIT(V559D) (Homo sapiens, UniProt P10721, V559D)
In short: as §1

[12] = molecular target: MARK2 (Homo sapiens, UniProt Q7KZI7)
In short: as §1

[13] = molecular target: NEK2 (Homo sapiens, UniProt P51955)
In short: as §1

[14] = molecular target: T5, PCTK3 (Homo sapiens, UniProt Q07002)
T5 construct: gene CDK18
In short: as §1

[15] = molecular target: PIK3CD (Homo sapiens, UniProt O00329)
In short: as §1

[16] = molecular target: PIM1 (Homo sapiens, UniProt P11309)
In short: as §1

[17] = molecular target: PRKCI (Homo sapiens, UniProt P41743)
In short: as §1

[18] = molecular target: SRMS (Homo sapiens, UniProt Q9H3Y6)
In short: as §1

[19] = molecular target: T6, TAK1 (Homo sapiens, UniProt O43318)
T6 construct: gene MAP3K7
In short: as §1

[20] = molecular target: TIE1 (Homo sapiens, UniProt P35590)
In short: as §1

[21] = molecular target: TSSK1B (Homo sapiens, UniProt Q9BXA7)
In short: as §1

[22] = molecular target: T7, VPS34 (Homo sapiens, UniProt Q8NEB9)
T7 construct: gene PIK3C3
In short: as §1

ACVR2A, sequence (P27037 whole entry): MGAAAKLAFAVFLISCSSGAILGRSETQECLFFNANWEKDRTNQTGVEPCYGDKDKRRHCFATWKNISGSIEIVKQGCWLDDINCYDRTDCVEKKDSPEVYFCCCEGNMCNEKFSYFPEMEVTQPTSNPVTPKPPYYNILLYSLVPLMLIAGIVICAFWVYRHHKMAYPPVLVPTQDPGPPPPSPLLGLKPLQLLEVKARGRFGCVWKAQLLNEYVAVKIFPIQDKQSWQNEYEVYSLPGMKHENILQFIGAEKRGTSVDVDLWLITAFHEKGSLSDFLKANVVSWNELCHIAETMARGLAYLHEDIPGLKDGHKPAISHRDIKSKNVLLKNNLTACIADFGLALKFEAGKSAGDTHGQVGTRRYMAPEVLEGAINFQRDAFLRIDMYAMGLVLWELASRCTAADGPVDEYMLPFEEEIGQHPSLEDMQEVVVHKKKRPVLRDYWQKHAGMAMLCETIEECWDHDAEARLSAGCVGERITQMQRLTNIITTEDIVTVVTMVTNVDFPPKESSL
CIT, sequence (O14578 whole entry): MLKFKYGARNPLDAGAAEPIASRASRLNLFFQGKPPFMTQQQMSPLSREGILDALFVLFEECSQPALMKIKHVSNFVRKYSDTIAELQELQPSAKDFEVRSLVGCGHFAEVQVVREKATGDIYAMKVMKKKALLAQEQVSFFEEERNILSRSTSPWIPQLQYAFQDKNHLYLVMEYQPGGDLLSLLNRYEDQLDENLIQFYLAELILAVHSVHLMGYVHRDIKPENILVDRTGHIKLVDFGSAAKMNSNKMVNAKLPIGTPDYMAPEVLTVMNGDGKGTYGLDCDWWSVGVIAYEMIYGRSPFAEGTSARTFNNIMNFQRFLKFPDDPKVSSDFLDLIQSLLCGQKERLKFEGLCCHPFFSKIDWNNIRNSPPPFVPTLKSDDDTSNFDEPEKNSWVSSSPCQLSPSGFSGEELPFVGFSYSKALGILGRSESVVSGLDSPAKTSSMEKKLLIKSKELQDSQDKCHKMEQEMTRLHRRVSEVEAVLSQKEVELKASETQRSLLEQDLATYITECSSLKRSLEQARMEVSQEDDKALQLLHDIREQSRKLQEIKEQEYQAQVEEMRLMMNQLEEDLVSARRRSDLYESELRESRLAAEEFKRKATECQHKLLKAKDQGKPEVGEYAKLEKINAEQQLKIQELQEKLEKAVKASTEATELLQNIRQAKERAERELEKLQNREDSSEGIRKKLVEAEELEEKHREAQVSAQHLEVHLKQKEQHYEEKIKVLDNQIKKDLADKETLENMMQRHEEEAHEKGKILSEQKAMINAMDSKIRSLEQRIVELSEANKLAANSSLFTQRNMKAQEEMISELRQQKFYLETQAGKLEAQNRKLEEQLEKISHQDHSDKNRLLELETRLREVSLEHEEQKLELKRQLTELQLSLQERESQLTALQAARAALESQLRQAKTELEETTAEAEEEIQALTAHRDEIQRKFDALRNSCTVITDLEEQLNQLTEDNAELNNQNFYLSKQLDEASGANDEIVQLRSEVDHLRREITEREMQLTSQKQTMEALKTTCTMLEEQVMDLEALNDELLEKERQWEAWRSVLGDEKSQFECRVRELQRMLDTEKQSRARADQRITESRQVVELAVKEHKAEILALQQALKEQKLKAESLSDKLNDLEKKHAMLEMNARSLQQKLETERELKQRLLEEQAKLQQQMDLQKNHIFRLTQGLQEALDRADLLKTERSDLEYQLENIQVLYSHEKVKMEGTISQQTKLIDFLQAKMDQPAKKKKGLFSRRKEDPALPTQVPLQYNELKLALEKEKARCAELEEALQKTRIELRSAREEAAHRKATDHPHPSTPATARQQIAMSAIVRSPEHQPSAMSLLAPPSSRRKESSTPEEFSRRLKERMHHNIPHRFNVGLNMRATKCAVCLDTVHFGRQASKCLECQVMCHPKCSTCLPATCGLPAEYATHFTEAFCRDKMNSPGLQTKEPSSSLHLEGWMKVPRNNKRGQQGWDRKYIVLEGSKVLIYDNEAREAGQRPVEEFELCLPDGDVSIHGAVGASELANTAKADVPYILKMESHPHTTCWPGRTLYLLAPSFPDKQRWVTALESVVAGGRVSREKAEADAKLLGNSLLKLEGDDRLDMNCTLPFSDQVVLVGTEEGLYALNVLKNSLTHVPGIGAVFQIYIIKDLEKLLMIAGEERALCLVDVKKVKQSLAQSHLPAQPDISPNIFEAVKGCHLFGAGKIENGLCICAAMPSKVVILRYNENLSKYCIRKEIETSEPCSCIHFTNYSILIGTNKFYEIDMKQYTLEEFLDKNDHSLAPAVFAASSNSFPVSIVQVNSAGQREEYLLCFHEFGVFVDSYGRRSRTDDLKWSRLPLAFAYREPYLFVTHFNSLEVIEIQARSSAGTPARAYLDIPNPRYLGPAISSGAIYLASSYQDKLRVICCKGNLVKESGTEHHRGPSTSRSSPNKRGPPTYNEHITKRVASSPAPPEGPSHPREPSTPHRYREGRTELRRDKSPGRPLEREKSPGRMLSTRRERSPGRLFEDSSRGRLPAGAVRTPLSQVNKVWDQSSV
T2 sequence (Q99683 whole entry): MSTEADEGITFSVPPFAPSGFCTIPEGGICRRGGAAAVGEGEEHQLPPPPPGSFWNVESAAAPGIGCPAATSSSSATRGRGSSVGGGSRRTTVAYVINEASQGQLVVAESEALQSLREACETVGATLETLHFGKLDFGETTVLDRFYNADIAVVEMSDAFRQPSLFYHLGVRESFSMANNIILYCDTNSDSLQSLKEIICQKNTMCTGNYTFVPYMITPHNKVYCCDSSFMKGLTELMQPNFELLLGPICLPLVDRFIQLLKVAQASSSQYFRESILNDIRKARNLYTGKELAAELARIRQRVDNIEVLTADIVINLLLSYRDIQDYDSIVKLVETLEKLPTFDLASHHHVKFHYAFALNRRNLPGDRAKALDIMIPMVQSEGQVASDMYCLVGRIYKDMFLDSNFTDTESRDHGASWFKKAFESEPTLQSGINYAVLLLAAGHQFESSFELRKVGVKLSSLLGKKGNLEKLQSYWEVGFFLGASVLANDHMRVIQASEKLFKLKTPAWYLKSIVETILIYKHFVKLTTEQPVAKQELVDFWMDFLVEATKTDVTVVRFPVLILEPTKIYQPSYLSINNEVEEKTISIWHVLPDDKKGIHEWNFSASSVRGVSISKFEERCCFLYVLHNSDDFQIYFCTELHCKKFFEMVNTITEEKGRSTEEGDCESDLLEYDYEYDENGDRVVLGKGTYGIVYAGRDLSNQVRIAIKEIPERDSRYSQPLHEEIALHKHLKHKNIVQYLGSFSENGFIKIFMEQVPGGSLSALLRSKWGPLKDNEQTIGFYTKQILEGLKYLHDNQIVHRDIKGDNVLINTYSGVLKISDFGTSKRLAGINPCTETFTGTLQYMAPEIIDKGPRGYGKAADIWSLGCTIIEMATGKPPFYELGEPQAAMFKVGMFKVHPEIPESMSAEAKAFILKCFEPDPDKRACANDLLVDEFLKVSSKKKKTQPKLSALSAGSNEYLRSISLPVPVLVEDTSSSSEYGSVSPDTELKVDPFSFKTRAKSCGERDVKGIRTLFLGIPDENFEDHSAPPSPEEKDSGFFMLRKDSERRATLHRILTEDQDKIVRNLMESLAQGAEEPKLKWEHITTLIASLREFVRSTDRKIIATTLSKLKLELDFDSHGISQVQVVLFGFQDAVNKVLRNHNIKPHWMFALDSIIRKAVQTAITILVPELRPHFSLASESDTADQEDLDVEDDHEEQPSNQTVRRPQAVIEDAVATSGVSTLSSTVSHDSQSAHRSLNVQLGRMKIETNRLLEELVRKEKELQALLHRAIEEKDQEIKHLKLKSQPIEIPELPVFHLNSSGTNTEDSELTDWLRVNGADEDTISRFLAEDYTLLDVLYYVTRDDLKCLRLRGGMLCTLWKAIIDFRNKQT
KIT(V559D), sequence (P10721 whole entry V559D): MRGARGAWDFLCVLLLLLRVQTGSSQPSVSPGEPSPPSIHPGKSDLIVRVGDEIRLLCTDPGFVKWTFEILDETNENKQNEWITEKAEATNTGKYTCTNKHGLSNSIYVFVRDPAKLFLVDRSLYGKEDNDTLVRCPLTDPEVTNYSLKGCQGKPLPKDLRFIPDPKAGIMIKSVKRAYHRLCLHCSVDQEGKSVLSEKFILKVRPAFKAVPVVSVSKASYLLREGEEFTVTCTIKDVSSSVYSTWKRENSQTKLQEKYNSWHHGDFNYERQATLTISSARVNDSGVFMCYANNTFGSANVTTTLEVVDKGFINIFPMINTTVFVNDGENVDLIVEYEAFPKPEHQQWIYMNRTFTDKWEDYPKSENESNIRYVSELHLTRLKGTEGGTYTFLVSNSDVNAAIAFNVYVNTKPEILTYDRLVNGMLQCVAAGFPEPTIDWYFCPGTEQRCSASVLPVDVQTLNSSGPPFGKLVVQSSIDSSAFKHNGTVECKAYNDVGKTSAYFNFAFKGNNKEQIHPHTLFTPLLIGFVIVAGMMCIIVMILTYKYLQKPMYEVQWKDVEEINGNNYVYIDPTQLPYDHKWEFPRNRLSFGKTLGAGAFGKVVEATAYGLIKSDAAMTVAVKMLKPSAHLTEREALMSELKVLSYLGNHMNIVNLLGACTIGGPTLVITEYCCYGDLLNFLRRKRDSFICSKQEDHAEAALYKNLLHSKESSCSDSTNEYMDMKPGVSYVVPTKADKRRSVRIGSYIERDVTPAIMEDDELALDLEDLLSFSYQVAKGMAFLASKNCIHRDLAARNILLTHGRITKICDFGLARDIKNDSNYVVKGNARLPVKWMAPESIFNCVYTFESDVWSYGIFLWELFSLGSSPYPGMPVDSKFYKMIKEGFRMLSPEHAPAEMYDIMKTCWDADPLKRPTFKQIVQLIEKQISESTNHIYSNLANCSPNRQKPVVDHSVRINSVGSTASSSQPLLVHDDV

remaining binding at 100 µM [1]: 78%
remaining binding at 100 µM [2]: 90%
remaining binding at 100 µM [3]: 81%
remaining binding at 100 µM [4]: 79%
remaining binding at 100 µM [5]: 90%
remaining binding at 100 µM [6]: 91%
remaining binding at 100 µM [7]: 81%
remaining binding at 100 µM [8]: 75%
remaining binding at 100 µM [9]: 92%
remaining binding at 100 µM [10]: 100%
remaining binding at 100 µM [11]: 89%
remaining binding at 100 µM [12]: 100%
remaining binding at 100 µM [13]: 100%
remaining binding at 100 µM [14]: 85%
remaining binding at 100 µM [15]: 87%
remaining binding at 100 µM [16]: 77%
remaining binding at 100 µM [17]: 72%
remaining binding at 100 µM [18]: 76%
remaining binding at 100 µM [19]: 79%
remaining binding at 100 µM [20]: 89%
remaining binding at 100 µM [21]: 95%
remaining binding at 100 µM [22]: 64%
SMILES: C=C(C)[C@H]1CC=C(C)C(=O)C1 [S-carvone]
